ChEMBL document CHEMBL1140449, “Preliminary studies of new proteasome inhibitors in the tumor targeting approach: synthesis and in vitro cytotoxicity” (J Med Chem, 2005)
Where a SMILES comes first, the peptide text is derived from it. The star is where a group is joined. Cbz = O=C(OCc1ccccc1)*

test: Inhibitory concentration for cytotoxic activity against human ocular melanoma IPC227F cells upon incubation for 48 h at 37 °C; call rule not given here

SMILES | IC50 [nM]
CCN(CC)CCNC(=O)c1ccc(C(=O)N[C@@H](CC(C)C)C(=O)N[C@@H](Cc2ccccc2)C(=O)N[C@H](C=O)CC(C)C)cc1 | 2840
CCN(CC)CCNC(=O)c1ccc(C(=O)N[C@@H](Cc2ccccc2)C(=O)N[C@H](C=O)CC(C)C)cc1 | 20900
CCN(CC)CCNC(=O)c1ccc(C(=O)N[C@@H](CC(C)C)C(=O)N[C@@H](CC(C)C)C(=O)N[C@H](C=O)CC(C)C)cc1 | 640
CCN(CC)CCNC(=O)c1ccc(C(=O)N[C@@H](Cc2ccccc2)C(=O)N[C@@H](CC(C)C)C(=O)N[C@H](C=O)CC(C)C)cc1 | 11900
CC(C)C[C@@H](C=O)NC(=O)[C@H](CC(C)C)NC(=O)[C@H](CC(C)C)NC(=O)OCc1ccccc1 [MG-132] (Cbz-Leu-Leu-Leu-aldehyde) | 77

test: Inhibitory concentration for cytotoxic activity against human ocular melanoma IPC227F cells upon incubation for 48 h at 37 °C; No inhibition

SMILES | IC50
CCN(CC)CCNC(=O)c1ccc(C(=O)N[C@H](C=O)CC(C)C)cc1 | Not Active
CCN(CC)CCNC(=O)c1ccc(C(=O)N[C@@H](CC(C)C)C(=O)N[C@H](C=O)CC(C)C)cc1 | Not Active
